This note sets out measurements from patent US9493453B2, “Piperazinyl pyrimidine derivatives, preparation method and use thereof” (INSTITUTE OF PHARMACOLOGY AND TOXICOLOGY ACADEMY OF …, priority 2012, dated 2016).

For assay [1], the target named is T1, CCR4 receptor (Homo sapiens, UniProt P51679).
T1 construct: cDNA fragments of receptor open reading frame were respectively inserted into pcDI; expressed in transfected cells; host or cells: HEK293 cells, transiently transfected by electroporation with pCDI-CCR4
T1 sequence (P51679 1-360): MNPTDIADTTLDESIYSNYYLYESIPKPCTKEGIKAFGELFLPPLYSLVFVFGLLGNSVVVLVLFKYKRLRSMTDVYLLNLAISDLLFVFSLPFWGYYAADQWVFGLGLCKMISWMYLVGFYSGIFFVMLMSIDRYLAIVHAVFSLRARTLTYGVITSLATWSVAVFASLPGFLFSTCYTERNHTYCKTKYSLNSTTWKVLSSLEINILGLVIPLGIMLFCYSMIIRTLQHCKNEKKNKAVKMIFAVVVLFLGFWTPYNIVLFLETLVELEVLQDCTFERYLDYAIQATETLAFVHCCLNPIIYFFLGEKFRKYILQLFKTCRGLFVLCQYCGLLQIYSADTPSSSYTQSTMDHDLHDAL
The experiment in a line: Inhibition of MDC/TARC/C27 mediated chemotactic response of CCR4-transfected HEK293 cells (Boyden chamber). It is filed as cell-based. Particulars: chemotactic inhibition rate, compound 1 μM, HEK293 cells transfected with pCDI-CCR4, 5 hours. The source says: Whether or not compounds 1-14 of the present invention can inhibit MDC (Peprotech) mediated chemotactic response of HEK293 cells was studied by using Boyden chamber (Neuro Probe, Inc.).
1. Construction of Receptor Expression Plasmid:
cDNA fragments including human chemokine receptor open reading frame were obtained by the following method: CCR4 receptor was cloned from a cDNA library of K562 cells through polymerase chain reaction (PCR). Primers were designed according to the sequence of Gen-Bank™ accession: CCR4 (NM_005508.2). cDNA fragments of receptor open reading frame were respectively inserted into pcDI (vector transformed in the chamber: eukaryotic expression vector obtained by replacing a BglII KpnI fragment of pcDNA3 (Invitrogen Corporation) plasmid with a BglII KpnI fragment of pCI (Promega Corporation) plasmid) expression vector so as to make them effectively express in HEK293 cells.
HEK293 cells were cultured in RPMI 1640 (Life Technologies, Inc.) containing 10% heat-inactivated fetal bovine serum, 100 U/mL penicillin, 100 μg/mL streptomycin. Each 4×10^6 HEK293 cells/400 μL were transiently transfected through electroporation with 15 μg chemokine receptor expression plasmids, under the condition of 120 V for 20 ms, the instrument used being electric pulse generator (Electro Square porator ECM 830, BTX, San Diego, Calif.). After 36-48 hr, chemotactic assay was carried out.
3. The Inhibitory Effect on MDC/TARC/C27 Mediated Chemotactic Response of HEK293 Cells
Chemokines MDC/TARC/C27 were diluted to 10 ng/mL with RPMI1640 (Life Technologies, Inc.), 0.1% BSA (Sigma), and added to lower holes in a 48-hole chemotactic chamber, 27.5 μL each hole. Eukaryotic expression plasmids pCDI-CCR4 were electrically shifted to HEK293 cells, and cultured normally for 36 hr. The cells were digested, re-suspended with RPMI1640, 10% FBS (Life Technologies, Inc.), and subjected to rotary incubation at 37° C. for 6.5 hours. The cells were washed twice with RPMI1640, and suspended in RPMI1640, 0.1% BSA, with a final concentration of 1×10^6/mL. The cells and the candidate compound dissolved in DMSO (Sigma) were subjected to rotary incubation at room temperature for half an hour, the final concentration of the candidate compound being 1 μM, and the final concentration of DMSO being 0.1%, and then added to upper holes in the chemotactic chamber, 55 μL each hole. The two layers were spaced by a polycarbon membrane with pore size of […] (Neuro Probe, Inc.). The chemotactic reaction was carried out in 5% CO2 at 37° C. for 5 hours. There were three groups of control in the experiment, wherein the first group was positive control, in which the transfected cells were directly added to upper holes without incubated with the candidate compound, while chemokines MDC/TARC/C27 were added to lower holes. The second group was negative control, in which the transfected cells were directly added to upper holes without incubated with the candidate compound, while RPMI1640, 0.1% BSA were added to lower holes. The third group was solvent DMSO control of the candidate compound, in which the transfected cells and DMSO were incubated at room temperature, the final concentration of DMSO being 0.1%, while chemokines MDC/TARC/C27 were added to lower holes. After completion of the chemotactic reaction, the membrane was removed, fixed and stained, and, at 400× high magnification, five horizons were randomly selected to count the cells, which were then summed. The ratio of the sum of the numbers of cells in five horizons at high magnification in each experimental group to the sum of the numbers of cells in five horizons at high magnification in the negative control group is obtained as Chemotactic Index (CI). Chemotactic inhibition rate was calculated as follows: […]

For assay [2], the system named is mice rhinitis model. Description: Mice rhinitis model experiment (OVA-sensitized BALB/c mice). It is filed as in vivo. Particulars: Example 8 compound 1 μg/Kg, budesonide 1.28 mg/Kg. As for the experimental part:
Mice Rhinitis Model Experiment
Female BALB/c mice (6-8 weeks) were sensitized with chicken ovalbumin (OVA, Sigma-Aldrich, St Louis, Mo., USA). The compound of the present invention (for example, the compound of Example 8) was administered to nasal mucosa, at a dose 1 μg/Kg. Glucocorticoid hormonal drug budesonide, a first-line clinical drug, was used as positive control, at a dose 1.28 mg/Kg. Meanwhile, there were provided a normal group wherein the mice were not sensitized and not administered, and an OVA group wherein the mice were sensitized and not administered. The following five indicators were detected: the number of sneezing, the number of nasal scratching within 10 min after administration; IL-4 level in bronchoalveolar lavage fluid; serum IgE level; lung tissue inflammation score. Lung tissue inflammation score was rated according to a single blind method: inflammation was divided into four levels from mild to severe, marked as 0-3 scores: 0 representing no detected inflammation; 1 representing occasional inflammatory cells being visible; 2 representing bronchus or blood vessel being surrounded by eosinophils, but less than five cell layers; 3 representing bronchus or blood vessel being surrounded by a large number of eosinophils, with 5 or more cell layers.

Setting [3] is: chemokine C27 10 ng/mL, read-out: C27 inhibition rate.
The mark [4] stands for this setting: chemokine MDC 10 ng/mL, read-out: MDC inhibition rate.
Where [5] appears, read: chemokine TARC 10 ng/mL, read-out: TARC inhibition rate.
Where [6] appears, read: OVA-sensitized female BALB/c mice, nasal mucosa, within 10 min after administration.

Where two headings read alike, the source gives them in different places.

Regarding `CCCN1CCN(c2nc(NCc3ccc(Cl)cc3Cl)c3cccnc3n2)CC1` [Compound 13, 4-[(2,4-dichlorobenzyl)amino]-2-(4-propylpiperazin-1-yl)pyrido[2,3-d]pyrimidine], the inhibition at 1 µM amounted to 16.7% in assay [1] (setting [3]), 48.8% in assay [1] (setting [4]) and 35.2% in assay [1] (setting [5]).
For `COC(CN(C)c1cc(NCc2ccc(Cl)cc2Cl)nc(N2CCN(C(=O)CCSC)CC2)n1)OC` [Compound 3, 1-{4-{4-[(2,4-dichlorobenzyl)amino]-6-[(2,2-dimethoxyethyl)methylamino]pyrimidin-2-yl}piperazin-1-yl}-3-methylthiopropanone], the inhibition at 1 µM in assay [1] (setting [3]) is 43.9%; in assay [1] (setting [4]), 35.5%; in assay [1] (setting [5]), 58.3%.
As to `COCCN(CCOC)c1cc(NCc2ccc(Cl)cc2Cl)nc(N2CCN(C(=O)CCSC)CC2)n1` [Compound 6, 1-{4-{4-[bis(2-methoxyethyl)amino]-6-(2,4-dichlorobenzylamino)-pyrimidin-2-yl}piperazin-1-yl}-3-methylthiopropanone], the inhibition at 1 µM in assay [1] (setting [3]) came to 51.2%; in assay [1] (setting [4]), 19.4%; in assay [1] (setting [5]) it was 55.7%.
Take `O=C([C@@H]1CSCCN1)N1CCN(c2nc(Cl)cc(NCc3ccc(Cl)cc3Cl)n2)CC1` [Compound 9, (R)-{4-{4-chloro-6-[(2,4-dichlorobenzyl)amino]pyrimidin-2-yl}piperazin-1-yl}(thiomorpholin-3-yl)methanone]: the values for the inhibition at 1 µM in assay [1] (setting [3]), in assay [1] (setting [4]) and in assay [1] (setting [5]) were 39.5%, 22.2% and 10.4%, respectively.
As for `CC(C)C(=O)N1CCN(c2nc(NCc3ccc(Cl)cc3Cl)c3cccnc3n2)CC1` [Compound 11, 1-{4-{4-[(2,4-dichlorobenzyl)amino]pyrido[2,3-d]pyrimidin-2-yl}piperazin-1-yl}-2-methylpropanone], the inhibition at 1 µM was 35.2% in assay [1] (setting [3]), 32.3% in assay [1] (setting [4]) and 61.4% in assay [1] (setting [5]).
`CCCC1O[C@@H]2C[C@H]3[C@@H]4CCC5=CC(=O)C=C[C@]5(C)[C@H]4[C@@H](O)C[C@]3(C)[C@]2(C(=O)CO)O1` (some centres unmarked) [Budesonide, budesonide, reference compound]: the IL-4 in assay [2] (IL-4 level in bronchoalveolar lavage fluid, OVA-sensitized mice) is 2.9 ± 1.5 pg/mL. Further, in assay [2] (setting [6]), the Nasal scratching was 12.0 ± 1.3 times/10 mins and the Sneezing is 31.7 ± 4.0 times/10 mins. Besides, in assay [2] (lung tissue inflammation score 0-3, single blind, OVA-sensitized mice), the Inflammation score is reported as 1.5 ± 0.6. The IgE in assay [2] (serum IgE level, OVA-sensitized mice) is given as 2822 ± 51 ng/mL.
Turning to `COCCN(CCOC)c1cc(NCc2ccc(Cl)cc2Cl)nc(N2CCN(C(=O)C(C)C)CC2)n1` [Compound 5, 1-{4-{4-[bis(2-methoxyethyl)amino]-6-(2,4-dichlorobenzylamino)-pyrimidin-2-yl}piperazin-1-yl}-2-methylpropanone], the inhibition at 1 µM amounted to 40.1% in assay [1] (setting [3]), 54.5% in assay [1] (setting [4]) and 39.1% in assay [1] (setting [5]).
In the same order, the values of `CCC(=O)N1CCN(c2nc(NCc3ccc(Cl)cc3Cl)c3cccnc3n2)CC1` [Compound 10, 1-{4-{4-[(2,4-dichlorobenzyl)amino]pyrido[2,3-d]pyrimidin-2-yl}piperazin-1-yl}propanone] are 38.3%, 32.3% and 59.8%.
`COC(CN(C)c1cc(NCc2ccc(Cl)cc2Cl)nc(N2CCN(C(=O)C(C)C)CC2)n1)OC` [Compound 2, 1-{4-{4-[(2,4-dichlorobenzyl)amino]-6-[(2,2-dimethoxyethyl)methylamino]pyrimidin-2-yl}piperazin-1-yl}-2-methylpropanone]: the inhibition at 1 µM in assay [1] (setting [3]) stood at 39%; in assay [1] (setting [4]), 36.1%; in assay [1] (setting [5]) it was 41.7%.
On to `CCC(=O)N1CCN(c2nc(NCc3ccc(Cl)cc3Cl)cc(N(CCOC)CCOC)n2)CC1` [Compound 4, 1-{4-{4-[bis(2-methoxyethyl)amino]-6-(2,4-dichlorobenzylamino)-pyrimidin-2-yl}piperazin-1-yl}propanone], for which the results for the inhibition at 1 µM in assay [1] (setting [3]), in assay [1] (setting [4]) and in assay [1] (setting [5]) were 34.6%, 54.9% and 45.2%, respectively.
On to `O=C([C@@H]1CSCCN1)N1CCN(c2nc(NCc3ccc(Cl)cc3Cl)c3cccnc3n2)CC1` [Compound 14, (R)-{4-{4-[(2,4-dichlorobenzyl)amino]pyrido[2,3-d]pyrimidin-2-yl}piperazin-1-yl}(thiomorpholin-3-yl)methanone], for which the inhibition at 1 µM in assay [1] (setting [3]) is 30.5%; in assay [1] (setting [4]) it was 62.1%; in assay [1] (setting [5]) it was 73.6%.
As to `O=C(C1CCCCC1)N1CCN(c2nc(NCc3ccc(Cl)cc3Cl)c3cccnc3n2)CC1` [Compound 12, cyclohexyl{4-{4-[(2,4-dichlorobenzyl)amino]pyrido[2,3-d]pyrimidin-2-yl}piperazin-1-yl}methanone], the values for the inhibition at 1 µM in assay [1] (setting [3]), in assay [1] (setting [4]) and in assay [1] (setting [5]) were 6.17%, 57.2% and 61.1%, respectively.
As to `COCCN(CCOC)c1cc(NCc2ccc(Cl)cc2Cl)nc(N2CCN(C(=O)C3CCCCC3)CC2)n1` [Compound 7, {4-{4-[bis(2-methoxyethyl)amino]-6-(2,4-dichlorobenzylamino)-pyrimidin-2-yl}piperazin-1-yl}cyclohexylmethanone], the inhibition at 1 µM stood at 37.9% in assay [1] (setting [3]), 30% in assay [1] (setting [4]) and 51% in assay [1] (setting [5]).
With `CCC(=O)N1CCN(c2nc(NCc3ccc(Cl)cc3Cl)cc(N(C)CC(OC)OC)n2)CC1` [Compound 1, 1-{4-{4-[(2,4-dichlorobenzyl)amino]-6-[(2,2-dimethoxyethyl)methylamino]pyrimidin-2-yl}piperazin-1-yl}propanone], the results for the inhibition at 1 µM in assay [1] (setting [3]), in assay [1] (setting [4]) and in assay [1] (setting [5]) were 25.3%, 36.3% and 46.4%, respectively.
